Measurements reported in ChEMBL document CHEMBL4196202, “Discovery and Structure-Based Optimization of Benzimidazole-Derived Activators of SOS1-Mediated Nucleotide Exchange on RAS” (J Med Chem, 2018).

How the values were obtained:
[1] = molecular target: T1, Son of sevenless homolog 1 (Homo sapiens, UniProt Q07889); assay: Activation of human recombinant N-terminal His6-tagged SOS1 (564 to 1049 residues) expressed in BL21-RIL Escherichia coli assessed as SOS1-RAS complex formation by measuring exchange of GTP to BODIPY-GDP measured every 3 secs for 30 mins by nucleotide exchange assay
T1 sequence (Q07889 whole entry): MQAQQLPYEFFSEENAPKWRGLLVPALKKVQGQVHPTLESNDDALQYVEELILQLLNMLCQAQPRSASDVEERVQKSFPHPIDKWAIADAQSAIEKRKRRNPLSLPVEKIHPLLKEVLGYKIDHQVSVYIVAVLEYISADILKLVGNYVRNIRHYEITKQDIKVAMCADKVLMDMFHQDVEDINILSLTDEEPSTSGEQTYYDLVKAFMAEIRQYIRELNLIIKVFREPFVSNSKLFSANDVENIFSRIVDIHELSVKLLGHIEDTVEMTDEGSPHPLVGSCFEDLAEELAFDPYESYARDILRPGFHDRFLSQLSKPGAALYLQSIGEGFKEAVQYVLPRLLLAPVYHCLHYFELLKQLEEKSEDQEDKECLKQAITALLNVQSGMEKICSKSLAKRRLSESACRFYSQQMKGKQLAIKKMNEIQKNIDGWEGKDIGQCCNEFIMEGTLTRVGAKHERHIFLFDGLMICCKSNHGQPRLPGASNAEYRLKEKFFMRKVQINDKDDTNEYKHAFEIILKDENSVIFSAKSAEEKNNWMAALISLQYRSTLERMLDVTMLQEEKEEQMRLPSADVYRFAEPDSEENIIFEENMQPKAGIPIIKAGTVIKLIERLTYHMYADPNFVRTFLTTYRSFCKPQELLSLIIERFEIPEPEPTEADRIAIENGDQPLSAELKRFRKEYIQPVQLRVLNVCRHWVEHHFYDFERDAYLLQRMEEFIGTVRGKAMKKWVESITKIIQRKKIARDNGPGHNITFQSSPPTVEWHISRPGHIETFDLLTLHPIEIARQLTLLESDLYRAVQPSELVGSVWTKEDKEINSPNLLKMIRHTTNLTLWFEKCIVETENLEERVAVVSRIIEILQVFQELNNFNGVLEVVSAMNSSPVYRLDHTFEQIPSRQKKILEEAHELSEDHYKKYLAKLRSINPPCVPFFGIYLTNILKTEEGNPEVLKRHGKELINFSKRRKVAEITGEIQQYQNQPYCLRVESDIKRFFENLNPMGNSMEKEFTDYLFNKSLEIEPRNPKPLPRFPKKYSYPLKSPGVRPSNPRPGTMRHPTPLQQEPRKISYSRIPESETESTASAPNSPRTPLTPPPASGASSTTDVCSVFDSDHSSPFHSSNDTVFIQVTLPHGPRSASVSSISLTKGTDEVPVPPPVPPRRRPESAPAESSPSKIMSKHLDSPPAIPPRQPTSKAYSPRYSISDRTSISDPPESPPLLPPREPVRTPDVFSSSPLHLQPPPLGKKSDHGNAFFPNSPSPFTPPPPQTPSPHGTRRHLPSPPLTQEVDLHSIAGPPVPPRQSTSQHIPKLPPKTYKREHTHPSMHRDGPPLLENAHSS

[2] = molecular target: T1, Son of sevenless homolog 1; assay: Binding affinity to human recombinant N-terminal His6-tagged SOS1 (564 to 1049 residues) expressed in BL21-RIL Escherichia coli by fluorescent probe S2 based fluorescence polarization anisotrophy saturation binding assay
[3] = molecular target: T2, Son of sevenless homolog 1 (Homo sapiens) (UniProt Q07889); assay: Activation of human recombinant N-terminal His6-tagged SOS1 (564 to 1049 residues) expressed in BL21-RIL Escherichia coli assessed as SOS1-RAS complex formation by measuring exchange of GTP to BODIPY-GDP measured every 3 secs for 30 mins by nucleotide exchange assay relative to control; set-up: concentration or dose not given beside the values
T2 sequence (whole entry): T1 sequence (Q07889 whole entry)

Compound	EC50 [1] [µM]	Kd [2] [µM]	Activity [3] [%]
Cc1cc2ncn(Cc3ccc(F)c(Cl)c3)c2cc1C	> 100		
Cc1cc(Cn2c(N3CCNCC3)nc3c(N4CCC[C@@H]4CN)cc(Cl)cc32)cc(C)c1F		0.24	
Cc1cc(Cn2c(N3CCNCC3)nc3c(-c4cccnn4)cc(Cl)cc32)cc(C)c1F		0.45	
Cc1cc2c(cc1C)N(Cc1ccccc1)C1=NCCCN12	23.2		64
Fc1ccc(Cn2c(N3CCNCC3)nc3ccc(C(F)(F)F)cc32)cc1Cl	4.4		78
Cc1cc2nc(C3CCNCC3)n(Cc3ccc(F)c(Cl)c3)c2cc1C	5.6		128
Cc1cc2nc(NC3CCNCC3)n(Cc3ccc(F)c(Cl)c3)c2cc1C	37.1		129
Cc1ccc2nc(N3CCNCC3)n(Cc3ccc(F)c(Cl)c3)c2c1	2.4		106
Cc1cc(Cn2c(N3CCNCC3)nc3c(N4CCC[C@@H]4CO)cc(Cl)cc32)cc(C)c1F		0.38	
Cc1cc(Cn2c(N3CCNCC3)nc3c(-c4ccccc4CO)cc(Cl)cc32)cc(C)c1F		0.14	
Cc1cc2nc(N3CCN(C)CC3)n(Cc3ccc(F)c(Cl)c3)c2cc1C	26		143
Fc1ccc(CN2C3=NCCCN3c3ccccc32)cc1	63		40
Fc1ccc(Cn2c(N3CCNCC3)nc3ccc(C4CC4)cc32)cc1Cl	24.3		65
Fc1ccc(Cn2c(N3CCNCC3)nc3ccc(Cl)cc32)cc1Cl	1		109
Cc1cc2nc(NCCN)n(Cc3ccc(F)c(Cl)c3)c2cc1C	1.9		114
Fc1ccc(Cn2c(N3CCNCC3)nc3ccc(Br)cc32)cc1Cl	1.3		115
Cc1cc(Cn2c(N3CCNCC3)nc3c(N4CCC[C@H]4CO)cc(Cl)cc32)cc(C)c1F		0.31	
Cc1cc2nc(N3CCC(N)CC3)n(Cc3ccc(F)c(Cl)c3)c2cc1C	6.6		114
Cc1cc2nc(N3CCNCC3)n(Cc3ccc(F)c(Cl)c3)c2cc1Cl	3		200

More lines, now with the values ahead:

EC50 [1] [µM]	Kd [2] [µM]	Activity [3] [%]	Compound
	0.18		Cc1cc(Cn2c(N3CCNCC3)nc3c(-c4cn[nH]c4)cc(Cl)cc32)cc(C)c1F
12.4		164	Cc1cc2nc(N3CCNCC3)n(Cc3ccc(Cl)cc3)c2cc1C
36.6		93	Cc1ccc(Cn2c(N3CCNCC3)nc3cc(C)c(C)cc32)cc1
5.9		130	Cc1cc2nc(N3CCNCC3)n(Cc3ccc(F)cc3)c2cc1C
8.5		176	Cc1cc2nc(N3CCCNCC3)n(Cc3ccc(F)c(Cl)c3)c2cc1C
5.9		183	Cc1cc2nc(N3CCNCC3)n(Cc3ccc(F)c(F)c3)c2cc1C
19.6		148	Cc1cc2nc(N3CCNCC3)n(Cc3ccc(C(F)(F)F)cc3)c2cc1C
	0.24		Cc1cc(Cn2c(N3CCNCC3)nc3c(-c4ccncc4)cc(Cl)cc32)cc(C)c1F
8.1		263	Cc1cc2nc(N3CCNCC3)n(Cc3ccc(F)c(C(F)(F)F)c3)c2cc1C
	0.13		Cc1cc(Cn2c(N3CCNCC3)nc3c(N4CCOCC4)cc(Cl)cc32)cc(C)c1F
	0.35		Cc1cc(Cn2c(N3CCNCC3)nc3c(-c4cncnc4)cc(Cl)cc32)cc(C)c1F
	0.21		Cc1ccccc1-c1cc(Cl)cc2c1nc(N1CCNCC1)n2Cc1cc(C)c(F)c(C)c1
	0.2		Cc1cc(Cn2c(N3CCNCC3)nc3c(N4CCCCC4)cc(Cl)cc32)cc(C)c1F
8.6		122	Cc1cc2nc(N3CCNCC3)n(Cc3ccccc3)c2cc1C
	0.39		Cc1cc(Cn2c(N3CCNCC3)nc3c(-c4cnccn4)cc(Cl)cc32)cc(C)c1F
11.7		151	Cc1cc2nc(N3CCNCC3)n(Cc3ccc(F)c(C4CC4)c3)c2cc1C
3.7		270	Cc1cc2nc(N3CCNCC3)n(Cc3cc(C)c(F)c(C)c3)c2cc1C
4.1		190	Cc1cc2nc(N3CCNCC3)n(Cc3ccc(F)c(C)c3)c2cc1C
